This passage reports MIC results from patent US20160175318A1, “COMPOSITIONS COMPRISING ANTIBACTERIAL AGENT AND TAZOBACTAM” (WOCKHARDT LIMITED, priority 2013, published 2016).

SMILES strings stand for the structures. Like-named read-outs stand apart in the source and are kept apart here.

What all share (assay): MIC by agar dilution (CLSI) against highly resistant ESBL strain
Format in all cases: cell-based
(Agar dilution tests growth on a series of plates holding different concentrations.)

One assay concerns E. coli B123. Here is the method:
(§1) The results on activity of cefepime and other cephalosporin antibacterial agents in combination with tazobactam against highly resistant ESBL strains are given Table 1. In a typical study, overnight grown bacterial cultures were diluted appropriately and inoculated on the agar media containing doubling dilutions of the antibiotic. Observation for growth or no growth was performed after 16-20 h of incubation at 35±2° C. in ambient air. The overall procedure was performed as per Clinical and Laboratory Standards Institute (CLSI) recommendations. This experimental was followed for Examples 2-4 and 6 below (Table 2-4 and 7).

The test system of a further assay is E. coli M50. How it is done:
as §1

The next assay concerns E. coli 7MP. How it is done:
as §1

The test system of a further assay is E. coli B-89. Here is the method:
as §1

Another assay relates to E. cloacae M-20. How it is done:
as §1

[1] abbreviates: Escherichia coli, B123, E. coli B123, with Tazobactam 4 mcg, read-out: MIC.
Where [2] appears, read: Escherichia coli, B123, E. coli B123, with Tazobactam 8 mcg, read-out: MIC.
The mark [3] stands for this setting: E. coli 7MP, with Tazobactam 4 mcg.
Where [4] appears, read: E. coli 7MP, with Tazobactam 8 mcg.
Setting [5] is: E. coli B-89, with Tazobactam 4 mcg.
The mark [6] stands for this setting: E. coli B-89, with Tazobactam 8 mcg.
Setting [7] is: E. cloacae M-20, with Tazobactam 4 mcg.
Setting [8] is: E. cloacae M-20, with Tazobactam 8 mcg.
[9] abbreviates: Escherichia coli, M50, 20 h, Tazobactam 0 mcg (antibiotic alone).
Setting [10] is: Enterobacter cloacae, M20, 20 h.

The term MIC denotes the smallest concentration in the dilution series that meets the test's criterion for growth inhibition. Take `COCC1=C(C(=O)O)N2C(=O)[C@@H](NC(=O)/C(=N\OC)c3csc(N)n3)[C@H]2SC1` [Cefpodoxime]: the MIC with E. coli B123 (Escherichia coli, B123, E. coli B123, Tazobactam 0 mcg (antibiotic alone), read-out: MIC) is over 128 µg/mL; with E. coli B123 (setting [1]) it was over 64 µg/mL; in the assay with E. coli B123 (setting [2]), over 64 µg/mL; in the assay on E. coli M50 (Escherichia coli, 20 h, Tazobactam 0 mcg (antibiotic alone), read-out: MIC), over 128 µg/mL; with E. coli M50 (with Tazobactam 4 mcg), over 64 µg/mL; in the assay on E. coli M50 (with Tazobactam 8 mcg), over 64 µg/mL. Besides, the MIC with E. coli 7MP (setting [3]) was over 64 µg/mL; in the assay on E. coli 7MP (setting [4]) it was over 64 µg/mL; in the assay with E. coli 7MP (Escherichia coli, 7MP, 20 h, E. coli 7MP, Tazobactam 0 mcg (antibiotic alone), read-out: MIC), over 128 µg/mL; in the assay with E. coli B-89 (setting [5]), over 64 µg/mL; in the assay with E. coli B-89 (setting [6]), over 64 µg/mL; in the assay with E. coli B-89 (Escherichia coli, B89, 20 h, E. coli B-89, Tazobactam 0 mcg (antibiotic alone), read-out: MIC) it was over 128 µg/mL. The MIC is over 64 µg/mL in the assay on E. cloacae M-20 (setting [7]); over 64 µg/mL in the assay on E. cloacae M-20 (setting [8]); over 128 µg/mL in the assay on E. cloacae M-20 (Enterobacter cloacae, M20, 20 h, E. cloacae M-20, Tazobactam 0 mcg (antibiotic alone), read-out: MIC).

Regarding `CC(C)(O/N=C(\C(=O)N[C@@H]1C(=O)N2C(C(=O)[O-])=C(C[n+]3ccccc3)CS[C@H]12)c1csc(N)n1)C(=O)O` [Ceftazidime], the MIC is over 128 µg/mL in the assay on E. coli B123 (Escherichia coli, B123); over 64 µg/mL in the assay on E. coli B123 (setting [1]); over 64 µg/mL with E. coli B123 (setting [2]); over 128 µg/mL in the assay on E. coli M50 (setting [9]); over 64 µg/mL with E. coli M50 (with Tazobactam 4 mcg); over 64 µg/mL in the assay on E. coli M50 (with Tazobactam 8 mcg). Further, the MIC is over 64 µg/mL with E. coli 7MP (setting [3]); over 64 µg/mL in the assay on E. coli 7MP (setting [4]); over 128 µg/mL with E. coli 7MP (Escherichia coli, 7MP, 20 h); over 64 µg/mL in the assay with E. coli B-89 (setting [5]); 64 µg/mL in the assay with E. coli B-89 (setting [6]); over 128 µg/mL in the assay with E. coli B-89 (Escherichia coli, B89, 20 h). The values for the MIC in the assay with E. cloacae M-20 (setting [7]), with E. cloacae M-20 (setting [8]) and in the assay with E. cloacae M-20 (setting [10]) were over 64 µg/mL, 64 µg/mL and over 128 µg/mL, respectively.

`CO/N=C(\C(=O)N[C@@H]1C(=O)N2C(C(=O)O)=C(CSc3nc(=O)c(=O)[nH]n3C)CS[C@H]12)c1csc(N)n1` [Ceftriaxone]: the MIC in the assay on E. coli B123 (E. coli B123, Tazobactam 0 mcg (antibiotic alone)) is over 128 µg/mL; in the assay on E. coli B123 (E. coli B123, with Tazobactam 4 mcg) it was over 64 µg/mL; in the assay with E. coli B123 (E. coli B123, with Tazobactam 8 mcg), over 64 µg/mL; in the assay on E. coli B123 (Escherichia coli, B123) it was over 128 µg/mL; in the assay with E. coli B123 (setting [1]), over 64 µg/mL; in the assay on E. coli B123 (setting [2]) it was over 64 µg/mL. Also, the MIC is 128 µg/mL in the assay with E. coli M50 (setting [9]); 64 µg/mL with E. coli M50 (with Tazobactam 8 mcg); over 128 µg/mL with E. coli 7MP (E. coli 7MP, Tazobactam 0 mcg (antibiotic alone)); over 64 µg/mL in the assay with E. coli 7MP (setting [3]); over 64 µg/mL with E. coli 7MP (setting [4]); over 128 µg/mL in the assay on E. coli 7MP (Escherichia coli, 7MP, 20 h). Also, the MIC was over 128 µg/mL in the assay on E. coli B-89 (E. coli B-89, Tazobactam 0 mcg (antibiotic alone)); over 64 µg/mL with E. coli B-89 (setting [5]); over 64 µg/mL in the assay on E. coli B-89 (setting [6]); over 128 µg/mL with E. coli B-89 (Escherichia coli, B89, 20 h); over 64 µg/mL with E. cloacae M-20 (setting [7]); over 64 µg/mL with E. cloacae M-20 (setting [8]). The MIC in the assay with E. cloacae M-20 (setting [10]) was over 128 µg/mL.
